Source: patent publication US12152047B2, “Anti-cancer gold compounds” (Royal Melbourne Institute of Technology, priority 2019, dated 2024)
Read-outs that look alike come from different tables or passages of the source.

Tests used:
[1] = test system: HeLa xenografts; experiment: In vivo anti-tumour activity in mice xenograft model; parameters: species or system BALB/c Nude mice; details: 1 mg/kg intraperitoneal, 42 days, nude mice bearing HeLa xenografts
Procedure: The use of metal complexes or gold compounds in animal xenograft models has been previously described elsewhere for cervical cancer models or other tumour types. The efficacy of the newly synthesised novel gold compound in reducing tumour growth in cervical cancer models was tested as follows. […] Five-week-old female BALB/c Nude mice were used. HeLa tumour cells (5×10^6) resuspended in RPMI medium injected subcutaneously tumour cells in 100 μL of culture media using a 29-gauge insulin syringe into both ventral flanks, anterior to the hind leg. The mice were monitored twice daily for 48 hrs to determine if any unexpected adverse effects are observed. Tumours were allowed to establish to approximately 50 mm^3 (as determined using electronic callipers) and the mice were then randomly separated into three groups of 5.
From this stock solution, the final working concentrations for mice injections were prepared in PBS (Phosphate buffered saline, pH 7.4) with DMSO concentration not exceeding 3.6%.
Tumour volumes were measured 8 times during the 42-day period. All mice were culled after 42 days and the tumours were collected and weighed. All the animal experiments were performed in Biological Research Facility, Melbourne University according to the animal ethics number 1814422.

[2] = test system: cisplatin-resistant ovarian cancer cells (A2780Cis); experiment: Dose dependent study, trypan blue assay, A2780Cis; assay type: cell-based; details: at 0.39 μM, 72 hours treatment
[3] = test system: A2780Cis cisplatin resistant ovarian cancer cells; experiment: Trypan blue assay, A2780Cis; assay type: cell-based
Procedure: (§1) A Trypan blue assay was conducted to determine the cytotoxicity of certain compounds of the invention towards cisplatin-sensitive (A2780) and -resistant (A2780Cis) ovarian, prostate (PC3) and colon (HT-29) cancer cells.
(§2) In order to determine the toxicity of the compounds, 5×10^4 cells per well were seeded into 24 well plates and allowed to grow for 24 hours. The cells were then treated with increasing concentrations of the compounds for 72 hours. […] The gold complexes were dissolved in DMSO immediately prior to the experiments (5 mM stock solutions). 0.25% DMSO in complete medium served as vehicle control. All treatments were performed using molar concentrations and each well received 1 mL of treatment in cell culture media (RPMI) containing 10% FBS and 1% penicillin and streptomycin. After 72 hours of treatment, the media was collected from each well in separate tubes in order to include dead cells in the cell count. Cells from the plate were removed using 200 μL of 0.25% Trypsin-EDTA for 3 minutes at 37° C. Trypsin was neutralised with the media originally removed from the cells and centrifuged at 1200 rpm for 5 minutes. The supernatant was discarded and the cells were resuspended in 100 μL of fresh complete media. From this, 20 μL of cell suspension was removed, mixed with an equal volume of Trypan Blue and the cells were counted using a haemocytometer.

[4] = test system: HT-29 colon cancer cells; experiment: Trypan blue assay, HT-29; assay type: cell-based
Procedure: as §1, §2

[5] = test system: A2780 ovarian cancer cells; experiment: Trypan blue assay, A2780; assay type: cell-based
Procedure: as §1, §2

[6] = test system: HeLa (cervical) cancer cells; experiment: MTT assay (in vitro cytotoxicity), HeLa; assay type: cell-based; details: ratio to cisplatin
Procedure: (§3) For all the assays, unless otherwise mentioned, stock solutions of the metal compounds were freshly prepared in DMSO (10 mM) and 1% DMSO in complete medium was used as a control.
(§4) The MTT [3-(4,5-dimethylthiazol-2-yl)-2,5-diphenyltetrazolium bromide] assay is based on the conversion of a yellow coloured MTT solution to purple formazan crystals by the active mitochondrial dehydrogenases of viable cells. Thus, the intensity of the produced purple colour is proportional to the number of viable cells. The cells were seeded in 96 well plates depending on cellular doubling time and were treated with solutions of the metal compounds (100 μM, 10 μm, 1 μM, 0.1 μM, 0.01 μM) after overnight incubation. The cells were further incubated for 48 h and the medium containing the test compounds was removed before addition of 100 μL MTT solution (5 mg/mL) in serum-free medium. After 4 h incubation in the dark at 37° C., the excess MTT solution was removed from the wells and 100 μL of DMSO was added to each well to solubilise the formed formazan crystals. The absorbance of formazan solution from each well was recorded using a Spectramax micro titre plate reader at 570 and 630 nm. […] For all the assays, stock solutions of gold compounds were prepared in DMSO (10 mM) and the final treatment concentrations (100 μM-0.01 μM) were made in complete growth medium.

[7] = test system: PC3 (prostate) cancer cells; experiment: MTT assay (in vitro cytotoxicity), PC3; assay type: cell-based; details: ratio to cisplatin
Procedure: as §3, §4

[8] = test system: HT-1080 (bone, fibrosarcoma) cancer cells; experiment: MTT assay (in vitro cytotoxicity), HT-1080; assay type: cell-based; details: ratio to cisplatin
Procedure: as §3, §4

[9] = MTT assay (in vitro cytotoxicity), HeK-293; assay type: cell-based; details: human, HEK-293 (normal) embryonic kidney cells, 48 h incubation, mean ± SD of three experiments
Procedure: as §3, §4

[10] = test system: PC3 prostate cancer cells; experiment: Trypan blue assay, PC3; assay type: cell-based

N.N.[Cl][Pt][Cl] [Cisplatin]
tumour volume inhibition ([1]; compared to solvent control): 29% | effect on cell viability [2]: no significant effect | IC50 ([3]; Trypan blue, 72 hours treatment, read-out: In vitro cytotoxicity IC50, A2780Cis): > 25000 nM | IC50 ([4]; Trypan blue, 72 hours treatment, read-out: In vitro cytotoxicity IC50, HT-29): > 25000 nM | IC50 ([5]; Trypan blue, 72 hours treatment, read-out: In vitro cytotoxicity IC50, A2780): 1400 ± 130 nM

S=P(c1ccccc1)(c1ccccc1)c1cccc[c]1[Au][PH]12CN3CN(CN(C3)C1)C2 [Compound 1, [Au(PTA){κC-2-C6H4P(S)Ph2}]]
mouse death or body weight loss after treatment [1]: no mouse death or body weight loss | higher cytotoxicity than cisplatin towards cervical cancer cells [6]: approximately 27 fold | higher cytotoxicity than cisplatin against prostate cancer cells [7]: 3.5 fold | higher cytotoxicity than cisplatin against bone cancer cells [8]: 7.8 fold | IC50 at 48 h [9]: 380 ± 110 nM

S=P(c1ccccc1)(c1ccccc1)c1cccc[c]1[Au][P+](c1ccccc1)(c1ccccc1)c1ccccc1 [Compound 2, [Au(PPh3){κC-2-C6H4P(S)Ph2}]]
IC50 at 48 h [9]: 5810 ± 350 nM

CC(=O)OC[C@H]1O[C@@H]([S-])[C@H](OC(C)=O)[C@@H](OC(C)=O)[C@@H]1OC(C)=O.CCP(CC)CC.[Au+] [auranofin]
IC50 [3]: 710 ± 60 nM | IC50 [10]: 440 ± 50 nM | IC50 [4]: 510 nM | IC50 [5]: 80 ± 10 nM

COc1cc([C@@H]2c3cc4c(cc3[C@@H](O[C@@H]3O[C@@H]5CO[C@@H](C)O[C@H]5[C@H](O)[C@H]3O)[C@H]3COC(=O)[C@H]23)OCO4)cc(OC)c1O [etoposide]
effect on cell viability [2]: no significant effect
